Experimental data taken from US20060166900A1, “Salt of morphine-6-glucuronide” (CeNeS Limited, priority 2002, published 2006).

Columns and labels:
Assay type in all cases: physicochemical
[1] = Stability of M6G salts at room temperature over 6 years, HPLC
[2] = Visual appearance on storage (Example 3)
Outline: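 Aliquots (900 mg) kept at 2-8 °C beforehand were stored in argon-flushed brown opaque HDPE bottles at 25 °C/60% RH, 40 °C/75% RH and 60 °C. Visual appearance was assessed at set time points.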

[3] = Water content by Karl Fisher analysis on storage (Example 3)
Outline: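 900 mg aliquots were held in argon-flushed brown opaque HDPE bottles at 25 °C/60% RH, 40 °C/75% RH and 60 °C. At each time point, water content (% w/w) was determined in duplicate on about 100 mg of equilibrated material by Karl Fischer titration.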

[4] = Colour of solution by visible spectrophotometry on storage (Example 3); settings: 5% w/v solution in water
Outline: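 5% w/v aqueous solution, absorbance at 420 nm in a 1 cm silica cell. Samples were stored in argon-flushed brown opaque HDPE bottles at 25° C./60% RH, 40° C./75% RH and 60° C.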

[5] = Stability indicating HPLC assay and related substances on storage (Example 3)
[6] = Storage stability of M6G base (general statement)

CN1CC[C@]23c4c5ccc(O)c4O[C@H]2[C@@H](O[C@@H]2O[C@H](C(=O)O)[C@@H](O)[C@H](O)[C@H]2O)C=C[C@H]3[C@H]1C5 [Morphine-6-glucuronide base, morphine-6-β-D-glucuronide]
HN-33177 ([1]; 0 years): 0.7% | Unknown related substances (sum area %) ([1]; 0 years): <0.1 area % | Assay M6G corr. ([1]; 0 years, content calculated as M6G derivative): 98.2% | Assay M6G corr. ([1]; 5 years at ambient temperature): 81.2% | HN-33177 ([1]; 5 years at ambient temperature): 0.8% | Morphine ([1]; 5 years at ambient temperature): 0.3% | Unknown related substances (sum area %) ([1]; 5 years at ambient temperature): 11.8 area % | Appearance ([2]; 1 month, 25° C./60% RH): White crystalline powder | Appearance ([2]; 1 month, 40° C./75% RH): Pale yellow crystalline powder | Appearance ([2]; 1 month, 60° C.): Yellow crystalline powder | Appearance ([2]; 3 months, 25° C./60% RH): White crystalline powder | Appearance ([2]; 3 months, 25° C./60% RH, listed as base): white crystalline solids | Appearance ([2]; 3 months, 40° C./75% RH): Yellow crystalline powder | Appearance ([2]; Initial): White crystalline powder | Moisture ([3]; 1 month, 25° C./60% RH): 9.00 % w/w | Moisture ([3]; 1 month, 40° C./75% RH): 9.68 % w/w | Moisture ([3]; 1 month, 60° C.): 8.21 % w/w | Moisture ([3]; 3 months, 25° C./60% RH): 9.53 % w/w | Moisture ([3]; 3 months, 40° C./75% RH): 9.85 % w/w | Moisture ([3]; Initial): 9.80 % w/w | moisture content across storage conditions ([3]; regardless of storage condition): reasonably consistent | Colour ([4]; 1 month, 25° C./60% RH): 0.040 Abs@420 nm | Colour ([4]; 1 month, 40° C./75% RH): 0.182 Abs@420 nm | Colour ([4]; 1 month, 60° C.): 0.541 Abs@420 nm | Colour ([4]; 3 months, 25° C./60% RH): 0.132 Abs@420 nm | Colour ([4]; 3 months, 40° C./75% RH): 0.680 Abs@420 nm | Colour ([4]; Initial): 0.017 Abs@420 nm | Known Related Substances HN33177 ([5]; 1 month, 25° C./60% RH): 0.88% | Known Related Substances HN75083 ([5]; 1 month, 25° C./60% RH): 0.05% | M6G Assay, Anhydrous basis ([5]; 1 month, 25° C./60% RH): 99.61 % w/w | M6G Assay, As is basis ([5]; 1 month, 25° C./60% RH): 90.77 % w/w | M6G Assay, Corrected for the salt form ([5]; 1 month, 25° C./60% RH): 99.61 % w/w | Total Known ([5]; 1 month, 25° C./60% RH): 0.93% | Total Related Substances ([5]; 1 month, 25° C./60% RH): 1.00% | Total Unknown ([5]; 1 month, 25° C./60% RH): 0.07% | Known Related Substances HN33177 ([5]; 1 month, 40° C./75% RH): 0.85% | Known Related Substances HN67003 ([5]; 1 month, 40° C./75% RH): 0.05% | Known Related Substances HN75083 ([5]; 1 month, 40° C./75% RH): 0.03% | M6G Assay, Anhydrous basis ([5]; 1 month, 40° C./75% RH): 99.45 % w/w | M6G Assay, As is basis ([5]; 1 month, 40° C./75% RH): 89.94 % w/w | M6G Assay, Corrected for the salt form ([5]; 1 month, 40° C./75% RH): 99.45 % w/w | Total Known ([5]; 1 month, 40° C./75% RH): 0.93% | Total Related Substances ([5]; 1 month, 40° C./75% RH): 1.27% | Total Unknown ([5]; 1 month, 40° C./75% RH): 0.34% | Known Related Substances HN33177 ([5]; 1 month, 60° C.): 0.83% | Known Related Substances HN67003 ([5]; 1 month, 60° C.): 0.19% | Known Related Substances HN75083 ([5]; 1 month, 60° C.): 0.02% | M6G Assay, Anhydrous basis ([5]; 1 month, 60° C.): 96.18 % w/w | M6G Assay, As is basis ([5]; 1 month, 60° C.): 89.31 % w/w | M6G Assay, Corrected for the salt form ([5]; 1 month, 60° C.): 96.18 % w/w | Total Known ([5]; 1 month, 60° C.): 1.04% | Total Related Substances ([5]; 1 month, 60° C.): 2.31% | Total Unknown ([5]; 1 month, 60° C.): 1.27% | stability based on % w/w assay ([5]; 3 month assay data): most stable | Known Related Substances HN33177 ([5]; 3 months, 25° C./60% RH): 0.86% | Known Related Substances HN67003 ([5]; 3 months, 25° C./60% RH): 0.04% | M6G Assay, Anhydrous basis ([5]; 3 months, 25° C./60% RH): 100.27 % w/w | M6G Assay, As is basis ([5]; 3 months, 25° C./60% RH): 91.84 % w/w | M6G Assay, Corrected for the salt form ([5]; 3 months, 25° C./60% RH): 100.27 % w/w | Total Known ([5]; 3 months, 25° C./60% RH): 0.90% | Total Related Substances ([5]; 3 months, 25° C./60% RH): 1.42% | Total Unknown ([5]; 3 months, 25° C./60% RH): 0.52% | Known Related Substances HN33177 ([5]; 3 months, 40° C./75% RH): 0.95% | Known Related Substances HN67003 ([5]; 3 months, 40° C./75% RH): 0.23% | Known Related Substances HN75076 ([5]; 3 months, 40° C./75% RH): 0.01% | Known Related Substances Morphine ([5]; 3 months, 40° C./75% RH): 0.07% | M6G Assay, Anhydrous basis ([5]; 3 months, 40° C./75% RH): 97.15 % w/w | M6G Assay, As is basis ([5]; 3 months, 40° C./75% RH): 88.67 % w/w | M6G Assay, Corrected for the salt form ([5]; 3 months, 40° C./75% RH): 97.15 % w/w | Total Known ([5]; 3 months, 40° C./75% RH): 1.26% | Total Related Substances ([5]; 3 months, 40° C./75% RH): 4.34% | Total Unknown ([5]; 3 months, 40° C./75% RH): 3.08% | increase in the amount of degradation products as measured by HPLC ([5]; 3 months, 40° C./75% RH): approximately 3% | stability assessment ([5]; 25° C./60% RH, three months): relatively stable | stability assessment ([5]; 40° C./75% RH over 3 months (base also 60° C. over 1 month)): shows signs of degradation | Known Related Substances HN33177 ([5]; Initial): 0.87% | Known Related Substances HN67003 ([5]; Initial): 0.05% | Known Related Substances HN75083 ([5]; Initial): 0.06% | M6G Assay, Anhydrous basis ([5]; Initial): 99.79 % w/w | M6G Assay, As is basis ([5]; Initial): 91.07 % w/w | M6G Assay, Corrected for the salt form ([5]; Initial): 99.79 % w/w | Total Known ([5]; Initial): 0.98% | Total Related Substances ([5]; Initial): 0.98% | Total Unknown ([5]; Initial): 0.00% | stability on storage ([6]; stored at room temperature): does degrade | stability on storage ([6]; stored at −20° C.): stable
